Results: patent publication US10112907B2, “Substituted indazoles for treating tendon and/or ligament injuries” (NOVARTIS AG, priority 2016, dated 2018)
Like-named read-outs stand apart in the source and are kept apart here.

Key:
[1] = test system: collagen type I (Col1a2) gene expression in rat tail tendon fascicles; test: Ex vivo assay, Col1a2 mRNA in tendon fascicles (qPCR); type: cell-based, Sprague Dawley rat
[2] = test system: Scleraxis (Scx) gene expression in rat tail tendon fascicles; test: Ex vivo assay, Scx mRNA in tendon fascicles (qPCR); type: cell-based, Sprague Dawley rat
[3] = test system: Scleraxis (Scx) gene transcriptional activation in TT-D6 Scx-luciferase (ScxL) cell line; test: SCX-LUC in vitro assay (Scx-luciferase reporter); type: cell-based; conditions: Mus musculus
[4] = test system: Tenomodulin (Tnmd) gene expression in rat tail tendon fascicles; test: Ex vivo assay, Tnmd mRNA in tendon fascicles (qPCR); type: cell-based, Sprague Dawley rat
[5] = 96 h, Table 3, four days, read-out: Ex vivo Col1a2 (EC50 μM)
[6] = 96 h, Table 3, four days, read-out: Ex vivo Scx (EC50 μM)
[7] = 96 h, Table 3, four days, read-out: Scx-Luc (EC50 μM)
[8] = 96 h, Table 3, four days, read-out: Ex vivo Tnmd (EC50 μM)
[9] = Table 1, read-out: Ex vivo Col1a2 (EC50 uM)
[10] = Table 1, read-out: Ex vivo SCX (EC50 uM)
[11] = Table 1, read-out: Scx-Luc (EC50 uM)
[12] = Table 1, read-out: Ex vivo Tnmd (EC50 uM)

Compound | EC50 [1, 5] | EC50 [2, 6] | EC50 [3, 7] | EC50 [4, 8] | also measured
Cc1c(-c2ccc(S(=O)(=O)N[C@H]3C[C@@H](O)C3)cc2Cl)ccc2[nH]nc(N)c12 [Example 34, 4-(3-amino-4-methyl-1H-indazol-5-yl)-3-chloro-N-((1s,3s)-3-hydroxycyclobutyl)benzenesulfonamide] | 5.92 µM | 1.54 µM | 0.614 µM | 0.078 µM | –
O=C(Nc1nc2cccc(-c3ccc(OCc4ccc[n+]([O-])c4)cc3)n2n1)C1CC1 [reference compound] | – | – | – | – | EC50 [1, 9]: 0.4 µM; EC50 [2, 10]: 0.36 µM; EC50 [3, 11]: 0.02 µM; EC50 [4, 12]: 5.99 µM
C[C@@H](O)c1nc2cnc3[nH]ccc3c2n1[C@H]1CCCOC1 [reference compound] | – | – | – | – | EC50 [1, 9]: 4.32 µM; EC50 [2, 10]: 3.31 µM; EC50 [3, 11]: 0.82 µM; EC50 [4, 12]: 4.19 µM
Cc1cc(S(=O)(=O)NC2CCC(F)(F)CC2)ccc1-c1ccc2[nH]nc(N)c2c1C [Example 43, 4-(3-amino-4-methyl-1H-indazol-5-yl)-N-(4,4-difluorocyclohexyl)-3-methylbenzenesulfonamide] | 3.45 µM | 3.37 µM | 0.696 µM | 4.87 µM | –
COc1c(-c2ccc(S(=O)(=O)N[C@@H]3CCC[C@@H]3O)cc2C)ccc2[nH]nc(N)c12 [Example 73, 4-(3-amino-4-methoxy-1H-indazol-5-yl)-N-((1R,2S)-2-hydroxycyclopentyl)-3-methylbenzenesulfonamide] | 3.77 µM | 5.23 µM | 0.632 µM | 6.51 µM | –
CCC1(O)CC(NS(=O)(=O)c2ccc(-c3ccc4[nH]nc(N)c4c3C)c(C)c2)C1 (stereo not shown) [Example 49, 4-(3-amino-4-methyl-1H-indazol-5-yl)-N-(3-ethyl-3-hydroxycyclobutyl)-3-methylbenzenesulfonamide] | 2.23 µM | 3.04 µM | 0.852 µM | 2.78 µM | –
Cc1cc(S(=O)(=O)N(C)C2CC(F)(F)C2)ccc1-c1ccc2[nH]nc(N)c2c1C [Example 63, 4-(3-amino-4-methyl-1H-indazol-5-yl)-N-(3,3-difluorocyclobutyl)-N,3-dimethylbenzenesulfonamide] | 1.79 µM | 1.38 µM | 0.222 µM | 5.41 µM | –
Cc1cc(S(=O)(=O)N2CCC[C@H]2CO)ccc1-c1ccc2[nH]nc(N)c2c1C [Example 19, (S)-(1-((4-(3-amino-4-methyl-1H-indazol-5-yl)-3-methylphenyl)sulfonyl)pyrrolidin-2-yl)methanol] | 10 µM | 10 µM | 0.431 µM | 10 µM | –
Cc1cc(S(=O)(=O)NC2CCOCC2)ccc1-c1ccc2[nH]nc(N)c2c1C [Example 21, 4-(3-amino-4-methyl-1H-indazol-5-yl)-3-methyl-N-(tetrahydro-2H-pyran-4-yl)benzenesulfonamide] | 5.32 µM | 3.7 µM | 1.26 µM | 6.64 µM | –
Cc1cnc(Nc2ccc(OCCN3CCCC3)cc2)nc1Nc1cccc(S(=O)(=O)NC(C)(C)C)c1 [reference compound] | – | – | – | – | EC50 [3, 11]: 0.62 µM
Cc1cc(S(=O)(=O)NC2CC(O)(C(F)(F)F)C2)ccc1-c1ccc2[nH]nc(N)c2c1F (stereo not shown) [Example 71, 4-(3-amino-4-fluoro-1H-indazol-5-yl)-N-((1s,3s)-3-hydroxy-3-(trifluoromethyl)cyclobutyl)-3-methylbenzenesulfonamide] | – | – | 0.108 µM | – | –
Cc1cc(S(=O)(=O)N2CCC[C@H]2CO)ccc1-c1ccc2[nH]nc(N)c2c1Cl [Example 28, (S)-(1-((4-(3-amino-4-chloro-1H-indazol-5-yl)-3-methylphenyl)sulfonyl)pyrrolidin-2-yl)methanol] | – | – | 0.436 µM | – | –
Cc1cc(S(=O)(=O)N2CCC(F)(F)C2)ccc1-c1ccc2[nH]nc(N)c2c1C [Example 77, 5-(4-((3,3-difluoropyrrolidin-1-yl)sulfonyl)-2-methylphenyl)-4-methyl-1H-indazol-3-amine] | – | – | 0.692 µM | – | –
Cc1cc(S(=O)(=O)N2C[C@@H](F)[C@@H](F)C2)ccc1-c1ccc2[nH]nc(N)c2c1C [Example 82, Meso-5-(4-(((3R,4S)-3,4-difluoropyrrolidin-1-yl)sulfonyl)-2-methylphenyl)-4-methyl-1H-indazol-3-amine] | – | – | 0.524 µM | – | –
Nc1n[nH]c2ccc(-c3ccc(S(=O)(=O)NC4CC(O)(C(F)(F)F)C4)cc3Cl)c(F)c12 (stereo not shown) [Example 72, 4-(3-amino-4-fluoro-1H-indazol-5-yl)-3-chloro-N-((1s,3s)-3-hydroxy-3-(trifluoromethyl)cyclobutyl)benzenesulfonamide] | – | – | 0.177 µM | – | –
Nc1n[nH]c2ccc(-c3ccc(S(=O)(=O)N[C@@H]4CCC[C@@H]4O)cc3Cl)c(F)c12 [Example 76, 4-(3-amino-4-fluoro-1H-indazol-5-yl)-3-chloro-N-((1R,2S)-2-hydroxycyclopentyl)benzenesulfonamide] | – | – | 0.171 µM | – | –
Cc1cc(S(=O)(=O)NC2CC(F)(F)C2)ccc1-c1ccc2[nH]nc(N)c2c1C [Example 24, 4-(3-amino-4-methyl-1H-indazol-5-yl)-N-(3,3-difluorocyclobutyl)-3-methylbenzenesulfonamide] | – | – | 0.366 µM | – | –
Cc1cc(-c2ccc3[nH]nc(N)c3c2C)ccc1S(=O)(=O)N1CC(F)(F)C[C@H]1CO [Example 91, (S)-(1-((4-(3-amino-4-methyl-1H-indazol-5-yl)-2-methylphenyl)sulfonyl)-4,4-difluoropyrrolidin-2-yl)methanol] | – | – | 2.91 µM | – | –
Cc1c(-c2ccc(S(=O)(=O)N3CC[C@@H](O)C3)cc2Cl)ccc2[nH]nc(N)c12 [Example 2, (R)-1-((4-(3-amino-4-methyl-1H-indazol-5-yl)-3-chlorophenyl)sulfonyl)pyrrolidin-3-ol] | – | – | 0.908 µM | – | –
Cc1cc(S(=O)(=O)N2C[C@H](O)[C@@H](F)C2)ccc1-c1ccc2[nH]nc(N)c2c1C [(3S,4S)-1-((4-(3-amino-4-methyl-1H-indazol-5-yl)-3-methylphenyl)sulfonyl)-4-fluoropyrrolidin-3-ol] | – | – | – | – | EC50 ([3]; assays described above (Scx-Luc and ex vivo), read-out: EC50 in the assays described above): > 10 µM
Cc1cc(S(=O)(=O)N[C@@H]2CCC[C@H]2O)ccc1-c1ccc2[nH]nc(N)c2c1C [Example 15, 4-(3-amino-4-methyl-1H-indazol-5-yl)-N-((1R,2R)-2-hydroxycyclopentyl)-3-methylbenzenesulfonamide] | – | – | 3.05 µM | – | –
Cc1cc(S(=O)(=O)N2CC(F)(F)C[C@@H]2CO)ccc1-c1ccc2[nH]nc(N)c2c1C [Example 88, (R)-(1-((4-(3-amino-4-methyl-1H-indazol-5-yl)-3-methylphenyl)sulfonyl)-4,4-difluoropyrrolidin-2-yl)methanol] | – | – | 0.22 µM | – | –
Cc1cc(S(=O)(=O)N2CC(F)(F)C[C@H]2CO)ccc1-c1ccc2[nH]nc(N)c2c1F [Example 44, (S)-(1-((4-(3-amino-4-fluoro-1H-indazol-5-yl)-3-methylphenyl)sulfonyl)-4,4-difluoropyrrolidin-2-yl)methanol] | – | – | 1.19 µM | – | –
Cc1cc(S(=O)(=O)N(C)C2CC(O)(C(F)(F)F)C2)ccc1-c1ccc2[nH]nc(N)c2c1C (stereo not shown) [Example 83, 4-(3-amino-4-methyl-1H-indazol-5-yl)-N-((1s,3s)-3-hydroxy-3-(trifluoromethyl)cyclobutyl)-N,3-dimethylbenzenesulfonamide] | – | – | 0.467 µM | – | –

Continued, in another order:

EC50 [1, 5] | EC50 [2, 6] | EC50 [3, 7] | EC50 [4, 8] | Compound | also measured
2.53 µM | 2.52 µM | 0.468 µM | 1.06 µM | Cc1cc(S(=O)(=O)N[C@@H]2CCC[C@@H]2O)ccc1-c1ccc2[nH]nc(N)c2c1C [Example 18, 4-(3-amino-4-methyl-1H-indazol-5-yl)-N-((1R,2S)-2-hydroxycyclopentyl)-3-methylbenzenesulfonamide] | –
0.557 µM | 1.75 µM | 0.638 µM | 0.447 µM | Cc1cc(S(=O)(=O)N[C@@H]2CCCC[C@H]2O)ccc1-c1ccc2[nH]nc(N)c2c1C [Example 16, 4-(3-amino-4-methyl-1H-indazol-5-yl)-N-((1R,2R)-2-hydroxycyclohexyl)-3-methylbenzenesulfonamide] | –
2.64 µM | 7.28 µM | 3.92 µM | 6.97 µM | Cc1cc(S(=O)(=O)N2CCC(O)CC2)ccc1-c1ccc2[nH]nc(N)c2c1C [Example 14, 1-((4-(3-amino-4-methyl-1H-indazol-5-yl)-3-methylphenyl)sulfonyl)piperidin-4-ol] | –
– | – | 0.288 µM | – | Cc1cc(S(=O)(=O)N2C[C@H](F)C[C@H]2CO)ccc1-c1ccc2[nH]nc(N)c2c1C [Example 87, ((2S,4R)-1-((4-(3-amino-4-methyl-1H-indazol-5-yl)-3-methylphenyl)sulfonyl)-4-fluoropyrrolidin-2-yl)methanol] | –
– | – | 0.578 µM | – | Cc1cc(S(=O)(=O)NC2CC(O)(c3ccccc3)C2)ccc1-c1ccc2[nH]nc(N)c2c1C (stereo not shown) [Example 52, 4-(3-amino-4-methyl-1H-indazol-5-yl)-N-(3-hydroxy-3-phenylcyclobutyl)-3-methylbenzenesulfonamide] | –
– | – | 2.33 µM | – | Cc1cc(S(=O)(=O)N2CC(C)(O)C2)ccc1-c1ccc2[nH]nc(N)c2c1C [Example 13, 1-((4-(3-amino-4-methyl-1H-indazol-5-yl)-3-methylphenyl)sulfonyl)-3-methylazetidin-3-ol] | –
– | – | 1.08 µM | – | Cc1cc(S(=O)(=O)NC2CC(F)(F)C2)ccc1-c1ccc2[nH]nc(N)c2c1Cl [Example 66, 4-(3-amino-4-chloro-1H-indazol-5-yl)-N-(3,3-difluorocyclobutyl)-3-methylbenzenesulfonamide] | –
